Experimental data from patent US12433863B2, “Pharmaceutical compositions and uses directed to lysosomal storage disorders” (INTRABIO LIMITED, priority 2016, dated 2025).

Key:
[1] = test system: Sandhoff disease patient fibroblasts; test: Glycosphingolipid (GSL) levels by HPLC in Sandhoff disease patient fibroblasts; format: cell-based, human; conditions: 1 mM for 6 days
[2] = test system: patients genetically diagnosed with Tay-Sachs disease; test: Case studies of Tay-Sachs disease patients (SARA, SCAFI, MoCA, mRDS, EQ-5D-5L); format: in vivo, human
Excerpt: For example, to evaluate overall neurological status, mDRS, a four-domain scale (ambulation, manipulation, language and swallowing), may be applied. Cerebellar function may be evaluated using SARA, an eight-item clinical rating scale (gait, stance, sitting, speech, fine motor function and taxis; range 0-40, where 0 is the best neurological status and 40 the worst), and SCAFI, comprising the 8-m-Walking-Time (8MW; performed by having patients walking twice as quickly as possible from one line to another excluding turning), 9-Hole-Peg-Test (9HPT) and the number of “PATA” repetitions over 10 s. Subjective impairment and quality of life may be evaluated using the EQ-5D-5L questionnaire and VAS. To assess ocular motor function, 3-dimensional videooculography (EyeSeeCam) may be used to measure the peak velocity of saccades, gain of smooth pursuit, peak slow phase velocity of gaze-evoked nystagmus (gaze-holding function), peak slow phase velocity of optokinetic nystagmus, and gain of horizontal vestibulo-ocular reflex. To evaluate the cognitive state, WAIS-R or WISC-IV, and MoCA, assessing different cognitive domains, including attention and concentration, executive functions, memory, language, visuoconstructional skills, conceptual thinking, calculations, and orientation with a maximum of 30 points and a cut-off score of 26, may be used. The skilled person will know how to perform these and other such tests.
In particular, the patient was not able to stand or walk, could do single steps with strong support, had distinct postural instability, ocular movement disorder, dysphagia and dysarthria, and mild cognitive function disorder.
(§1) Before treatment was commenced, examination of the patient indicated a Scale for Assessment and Rating of Ataxia (SARA) score of 15.5/40. In addition, results from the patient's Spinocerebellar Ataxia Functional Index (SCAFI) analysis were: • Mean 8-meters Walking Test (8MW): 21.6 s • MW 9-Hole Pegboard Test Dominant (9HPTD) (right): 48.3 s • MW 9-Hole Pegboard Test Non-Dominant (9HPTND): 44.9 s • MW PATA Word Test: 20 • Montreal Cognitive Assessment (MoCA): 18/30
The day following this examination, the patient was started on therapy with acetyl-leucine, at a dose of 3 g per day for the first week, followed by a dose of 5 g per day for the second week onwards.
In particular, walking was not possible without support, and the patient suffered from dysphagia and speech disorder, ocular movement disorder, and mild cognitive function disorder.
as §1, with “10.5/40.” for “15.5/40.”, “12.5” for “21.6”, “21.5” for “48.3”, “35.5” for “44.9”, “18” for “20”, “21/30” for “18/30”
The day of the examination, the patient was started on therapy with acetyl-leucine at a dose of 3 g per day for the first week, followed by a dose of 5 g per day for the second week onwards.
The patient in this case study was a person who was genetically diagnosed with Tay-Sachs disease and who had epileptic cramps (tonic-clonic, about 10 seconds, self-limiting) almost every day before falling asleep, ocular movement disorder, anarthria, distinct problems in cognitive function and concentration (neurological examination was not possible), was not able to stand or walk by themself, and was very limited in daily activities (eating, washing or dressing themself was not possible).
Before treatment was commenced, examination of the patient indicated a Scale for Assessment and Rating of Ataxia (SARA) score of 36/40, a mRDS score of 18/24, a EQ-5D-5L visual scale of 50, and a 8MWT of 18.1 (only with strong support). […]

[3] = test system: patient genetically diagnosed with GM1 Gangliosidosis; test: Case study of a GM1 Gangliosidosis patient (SARA, mRDS, EQ-5D-5L); format: in vivo, human; conditions: after one month
Excerpt: The patient in this case study was a person who was genetically diagnosed with GM1 Gangliosidosis and who was not able to stand or walk by themself, was very limited in daily activities (eating, washing, dressing themself was not possible), and had ocular movement disorder, anarthria, and distinct problems in cognitive function and concentration (neurological examination was not possible).
Before treatment was commenced, examination of the patient indicated a Scale for Assessment and Rating of Ataxia (SARA) score of 35/40, a mRDS score of 15, and a EQ-5D-5L visual scale of 50.
The patient was started on therapy with acetyl-leucine at a dose of 1.5 g per day for the first week, followed by a dose of 3 g per day for the second week onwards.

[4] = test system: AB variant of Tay-Sachs disease patient fibroblasts; test: Glycosphingolipid (GSL) levels by HPLC in AB variant of Tay-Sachs disease patient fibroblasts; format: cell-based, human; conditions: 1 mM for 6 days
[5] = test system: patients with Niemann-Pick Type C (NPC); conditions: one-month study, 12 NPC patients; Bremova et al. 2015; cited from earlier work

For `CC(=O)NC(CC(C)C)C(=O)O` (racemic) [acetyl-DL-leucine], the “GSL levels (GSL storage)” value [1] was “trend towards decreased GSL levels”, the “Overall change in symptoms” value ([2]; Patient 1) was “improvement in symptoms” and the SARA ([2]; Patient 1, 3 g then 5 g per day, after 4 months) was 17/40. The MoCA ([2]; Patient 1, after 4 months) was 22/30, the Clinical re-examination findings ([2]; Patient 1, after four months) was “stable condition with slightly improved cognitive function but had deterioration of stance, gait and fine motor function” and the Clinical re-examination findings ([2]; Patient 1, after one month) was “improved fine motor skills and reduced hand tremor”. For the same compound, the MoCA ([2]; Patient 1, after one month) was 21/30, the SARA ([2]; Patient 2, 3 g then 5 g per day, after one month) was 5/40 and the Clinical re-examination findings ([2]; Patient 2, after one month) was “increased enunciation, improved postural stability, and enhanced cognitive function”. For the same compound, the MoCA ([2]; Patient 2, after one month) was 25/30, the SARA ([2]; Patient 3, 1.5 g then 3 g per day, after one month) was 33/40 and the SARA ([3]; 1.5 g then 3 g per day) was 35/40. The Clinical re-examination findings [3] was “stable general condition, increased gait (more fluent), and stable stance in natural position”, the mRDS [3] was 16 and the “GSL levels (GSL storage)” value [4] was “trend towards decreased GSL levels”. For the same compound, the Ataxia symptoms [5] was “symptomatic improvement of ataxia”.
